# Reference: patent publication US12630547B2, “RAS protein degraders, pharmaceutical compositions thereof, and their therapeutic applications” (BioTheryX, Inc., priority 2019, dated 2026)
# Columns and labels:
# Assay type in all cases: cell-based
# H23 cells = experiment: Cell viability assay (CELLTITER-GLO), H23 cells; details: Table 4; 3 days
# Method: (§1) MOLM-13 cells, MV-4-11 cells, H23, and H358 cells were independently cultured in RPMI 1640 media supplemented with 10% fetal bovine serum, streptomycin and penicillin. The cells were plated in white walled 96-well plates at 4,000 cells/well. The cells were incubated in DMSO (control) or a compound for 3 days at 37° C. under 5% CO2. A CELLTITER-GLO® reagent (100 μL) was then added to each well. After a 10 min incubation with shaking, luminescence was measured using an ENVISION® multimode plate reader.
# (§2) IC50 values are summarized in Table 4, where “A” represents an IC50 value of no greater than 1 μM, “B” represents an IC50 value of greater than 1 μM and no greater than 5 μM, “C” represents an IC50 value of greater than 5 μM and no greater than 10 μM, and “D” represents an IC50 value of greater than 10 μM.
# H358 cells = experiment: Cell viability assay (CELLTITER-GLO), H358 cells; details: Table 4; 3 days
# Method: as §1
# In Tables 1 and 2, each compound was tested at 10 μM; and in Table 3, each compound was tested at 1 μM. In Tables 1 to 3, the cell viability values as % DMSO are reported as “A,” “B,” “C,” or “D;” where “A” represents a % viability value of less than 10%; “B” represents a % viability value of no less than 10% and less than 25%; “C” represents a % viability value of no less than 25% and less than 50%; and “D” represents a % viability value of no less than 50%. Compound A is
# as §2
# MOLM-13 cells = experiment: Cell viability assay (CELLTITER-GLO), MOLM-13 cells; details: Homo sapiens, MOLM-13, 72 h; Table 2; compound at 10 μM, 3 days; read-out: Effect on MOLM-13 cell viability (% DMSO)
# Method in brief: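 Viability, as % of DMSO control, was read by CellTiter-Glo luminescence after a 3-day compound exposure (single dose of 10 μM or 1 μM) at 37 °C. Cells plated at 4,000/well in RPMI 1640 with 10% FBS. Results reported as categories A <10%, B 10–<25%, C 25–<50%, D ≥50%.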
"Inhibition of H358 cells, IC50 (class) (H358 cells)",Structure (SMILES),"Inhibition of H23 cells, IC50 (class) (H23 cells)",viability at 10 µM (MOLM-13 cells) [%]
D′,"C=CC(=O)N1CCN(c2ncnc3c(F)c(-c4cc(OCCOCCOCCC(=O)NCCNc5cccc6c5CN(C5CCC(=O)NC5=O)C6=O)ccc4F)c(Cl)cc23)CC1 (stereo not drawn) [Compound 38, 3-(2-(2-(3-(4-(4-Acryloylpiperazin-1-yl)-6-chloro-8-fluoroquinazolin-7-yl)-4-fluorophenoxy)ethoxy)ethoxy)-N-(2-((2-(2,6-dioxopiperidin-3-yl)-1-oxoisoindolin-4-yl)amino)ethyl)propanamide]",D′,≥ 50
B′,"C=CC(=O)N1CC(N2Cc3ccc(-c4cc(O)cc5ccccc45)cc3N(CCOCCOCCOCCNc3ccc4c(c3)C(=O)N(C3CCC(=O)NC3=O)C4=O)C2=O)C1 (stereo not drawn) [Compound 40, 5-((2-(2-(2-(2-(3-(1-Acryloylazetidin-3-yl)-7-(3-hydroxynaphthalen-1-yl)-2-oxo-3,4-dihydroquinazolin-1(2H)-yl)ethoxy)ethoxy)ethoxy)ethyl)amino)-2-(2,6-dioxopiperidin-3-yl)isoindoline-1,3-dione]",B′,< 10
B′,"O=C1CCC(N2Cc3c(cc(F)cc3C3CCN(CCCCCCCOc4cccc(F)c4-c4c(Cl)cc5c(N6CCN(C(=O)c7cnc[nH]7)CC6)ncnc5c4F)CC3)C2=O)C(=O)N1 (stereo not drawn) [Compound 41, 3-(4-(1-(7-(2-(4-(4-(1H-Imidazole-5-carbonyl)piperazin-1-yl)-6-chloro-8-fluoroquinazolin-7-yl)-3-fluorophenoxy)heptyl)piperidin-4-yl)-6-fluoro-1-oxoisoindolin-2-yl)piperidine-2,6-dione]",B′,< 10
D′,"CCC(=O)N1CCN(c2ncnc3c(F)c(-c4c(F)cccc4OCCOCCOCCOCCNc4cccc5c4C(=O)N(C4CCC(=O)NC4=O)C5=O)c(Cl)cc23)CC1 (stereo not drawn) [Compound 42, 4-((2-(2-(2-(2-(2-(6-Chloro-8-fluoro-4-(4-propionylpiperazin-1-yl)quinazolin-7-yl)-3-fluorophenoxy)ethoxy)ethoxy)ethoxy)ethyl)amino)-2-(2,6-dioxopiperidin-3-yl)isoindoline-1,3-dione]",D′,≥ 50
A′,"C=C(Cl)C(=O)N1CCN(c2ncnc3c(F)c(-c4c(F)cccc4OCCCCCCCN4CCC(c5cc(F)cc6c5CN(C5CCC(=O)NC5=O)C6=O)CC4)c(Cl)cc23)CC1 (stereo not drawn) [Compound 43, 3-(4-(1-(7-(2-(6-Chloro-4-(4-(2-chloroacryloyl)piperazin-1-yl)-8-fluoroquinazolin-7-yl)-3-fluorophenoxy)heptyl)piperidin-4-yl)-6-fluoro-1-oxoisoindolin-2-yl)piperidine-2,6-dione]",A′,< 10
C′,"CCC(=O)N1CC(N2Cc3ccc(-c4cc(O)cc5ccccc45)cc3N(CCCCCCCN3CCC(c4cc(F)cc5c4CN(C4CCC(=O)NC4=O)C5=O)CC3)C2=O)C1 (stereo not drawn) [Compound 44, 3-(6-Fluoro-4-(1-(7-(7-(3-hydroxynaphthalen-1-yl)-2-oxo-3-(1-propionylazetidin-3-yl)-3,4-dihydroquinazolin-1(2H)-yl)heptyl)piperidin-4-yl)-1-oxoisoindolin-2-yl)piperidine-2,6-dione]",B′,< 10
C′,"C=CC(=O)N1CC(N2Cc3ccc(-c4cc(O)cc5ccccc45)cc3N(CCOCCOCCNc3cccc4c3C(=O)N(C3CCC(=O)NC3=O)C4=O)C2=O)C1 (stereo not drawn) [Compound 45, 4-((2-(2-(2-(3-(1-Acryloylazetidin-3-yl)-7-(3-hydroxynaphthalen-1-yl)-2-oxo-3,4-dihydroquinazolin-1(2H)-yl)ethoxy)ethoxy)ethyl)amino)-2-(2,6-dioxopiperidin-3-yl)isoindoline-1,3-dione]",B′,≥ 50
D′,"CCC(=O)N1CC(N2Cc3ccc(-c4cc(O)cc5ccccc45)cc3N(CCNCCCCCCCN3CCC(c4cc(F)cc5c4CN(C4CCC(=O)NC4=O)C5=O)CC3)C2=O)C1 (stereo not drawn) [Compound 46, 3-(6-Fluoro-4-(1-(7-((2-(7-(3-hydroxynaphthalen-1-yl)-2-oxo-3-(1-propionylazetidin-3-yl)-3,4-dihydroquinazolin-1(2H)-yl)ethyl)amino)heptyl)piperidin-4-yl)-1-oxoisoindolin-2-yl)piperidine-2,6-dione]",D′,≥ 50
B′,"C=CC(=O)N1C[C@H](C)N(c2nc(OCCOCCOCCOCCNc3cccc4c3C(=O)N(C3CCC(=O)NC3=O)C4=O)nc3c(F)c(-c4c(O)cccc4F)c(Cl)cc23)C[C@H]1C (stereo partly drawn) [Compound 58, 4-((2-(2-(2-(2-((4-((2S,5R)-4-Acryloyl-2,5-dimethylpiperazin-1-yl)-6-chloro-8-fluoro-7-(2-fluoro-6-hydroxyphenyl)quinazolin-2-yl)oxy)ethoxy)ethoxy)ethoxy)ethyl)amino)-2-(2,6-dioxopiperidin-3-yl)isoindoline-1,3-dione]",B′,< 10
B′,"CCS(=O)(=O)N1CCN(c2ncnc3c(F)c(-c4c(F)cccc4OCCCCCCCN4CCC(c5cc(F)cc6c5CN(C5CCC(=O)NC5=O)C6=O)CC4)c(Cl)cc23)CC1 (stereo not drawn) [Compound 59, 3-(4-(1-(7-(2-(6-Chloro-4-(4-(ethylsulfonyl)piperazin-1-yl)-8-fluoroquinazolin-7-yl)-3-fluorophenoxy)heptyl)piperidin-4-yl)-6-fluoro-1-oxoisoindolin-2-yl)piperidine-2,6-dione]",B′,< 10
B′,"CCC(=O)N1CCN(c2ncnc3c(F)c(-c4c(F)cccc4OCCCCCCCCCN4CCC(c5cc(F)cc6c5CN(C5CCC(=O)NC5=O)C6=O)CC4)c(Cl)cc23)CC1 (stereo not drawn) [Compound 61, 3-(4-(1-(9-(2-(6-Chloro-8-fluoro-4-(4-propionylpiperazin-1-yl)quinazolin-7-yl)-3-fluorophenoxy)nonyl)piperidin-4-yl)-6-fluoro-1-oxoisoindolin-2-yl)piperidine-2,6-dione]",B′,< 10
B′,"C=CC(=O)N1CCN(c2ncnc3c(F)c(-c4c(F)cccc4OCCCNCc4ccc(COc5cccc6c5CN([C@H]5CCC(=O)NC5=O)C6=O)cc4)c(Cl)cc23)CC1 [Compound 62, (3S)-3-(4-((4-(((3-(2-(4-(4-Acryloylpiperazin-1-yl)-6-chloro-8-fluoroquinazolin-7-yl)-3-fluorophenoxy)propyl)amino)methyl)benzyl)oxy)-1-oxoisoindolin-2-yl)piperidine-2,6-dione]",B′,< 10
C′,"CCC(=O)N1CCN(c2ncnc3c(F)c(-c4c(F)cccc4OCCCNCc4ccc(COc5cccc6c5CN([C@H]5CCC(=O)NC5=O)C6=O)cc4)c(Cl)cc23)CC1 [Compound 63, (3S)-3-(4-((4-(((3-(2-(6-Chloro-8-fluoro-4-(4-propionylpiperazin-1-yl)quinazolin-7-yl)-3-fluorophenoxy)propyl)amino)methyl)benzyl)oxy)-1-oxoisoindolin-2-yl)piperidine-2,6-dione]",C′,10 to 25
B′,"C=CC(=O)N1C[C@@H]2C(=O)N(C)c3cnc4c(F)c(-c5c(F)cccc5OCCCCCCCN5CCC(c6cc(F)cc7c6CN(C6CCC(=O)NC6=O)C7=O)CC5)c(Cl)cc4c3N2C[C@H]1C (stereo partly drawn) [Compound 64, 3-(4-(1-(7-(2-((2R,4aR)-3-Acryloyl-11-chloro-9-fluoro-2,6-dimethyl-5-oxo-2,3,4,4a,5,6-hexahydro-1H-pyrazino[1′,2′:4,5]pyrazino[2,3-c]quinolin-10-yl)-3-fluorophenoxy)heptyl)piperidin-4-yl)-6-fluoro-1-oxoisoindolin-2-yl)piperidine-2,6-dione]",A′,< 10
B′,"CCC(=O)N1C[C@@H]2C(=O)N(C)c3cnc4c(F)c(-c5c(F)cccc5OCCCCCCCN5CCC(c6cc(F)cc7c6CN(C6CCC(=O)NC6=O)C7=O)CC5)c(Cl)cc4c3N2C[C@H]1C (stereo partly drawn) [Compound 65, 3-(4-(1-(7-(2-((2R,4aR)-11-Chloro-9-fluoro-2,6-dimethyl-5-oxo-3-propionyl-2,3,4,4a,5,6-hexahydro-1H-pyrazino[11′,2′:4,5]pyrazino[2,3-c]quinolin-10-yl)-3-fluorophenoxy)heptyl)piperidin-4-yl)-6-fluoro-1-oxoisoindolin-2-yl)piperidine-2,6-dione]",B′,< 10
